Results published in US11833137B2, “Substituted chromenones, IRE1 inhibitors, and methods of using same” (The Wistar Institute, priority 2018, dated 2023).

What was measured:
CLL = conditions: mouse, in vivo; cited from earlier work
[1] = system: CD11b+/Ly6G+ granulocytic MDSCs; assay: MDSC-mediated T cell suppression assay; format: in vivo, mouse; conditions: OT-I splenocytes, OVA peptide
Procedure: FIGS. 24A-24J illustrate the finding that targeting XBP-1s in CLL cells of MD4^+/−/Eμ-TCL1^+/+ mice leads to reduced production of sIgM, and decreased numbers and function of granulocytic MDSCs. […]. Gated CD11c−/CD11b+ populations were analyzed for Ly6C^intermediate/Ly6G+ granulocytic MDSCs and Ly6C+/Ly6G− monocytic MDSCs. (FIG. 24C) Percentages of CD11b+ myeloid cells in the blood of MD4^+/−/Eμ-TCL1^+/+ and XBP-1^KO/MD4^+/−/Eμ-TCL1^+/+ mice were plotted as mean±SEM. (FIG. 24D) Percentages of CD11b+/Ly6C^intermediate/Ly6G+ granulocytic MDSCs in the blood of MD4^+/−/Eμ-TCL1^+/+ and XBP-1^KO/MD4^+/−/Eμ-TCL1^+/+ mice were plotted as mean±SEM. […] Gated CD11b+/Ly6C^intermediate/Ly6G+ granulocytic MDSCs were analyzed for the expression of Arg-1. (FIG. 24F) Mean fluorescence intensity (MFI) of Arg-1 in gated CD11b+/Ly6C^intermediate/Ly6G+ granulocytic MDSCs from spleens of 5 MD4^+/−/Eμ-TCL1^+/+ and 5 XBP-1^KO/MD4^+/−/Eμ-TCL1^+/+ mice was plotted as mean±SEM. […] The ^3H-thymidine uptake was measured, and the percentages of proliferation were calculated by comparing to the positive control and plotted as mean±SEM. […] The percentage of CLL cells in PBMCs for each mouse was determined by flow cytofluorometry on day 6 and day 13, and compared with the CLL burden data of the mouse on day 0 (100%). […]

[2] = system: Arg-1 in CD11b+/Ly6G+ granulocytic MDSCs; assay: Arg-1 expression in granulocytic MDSCs of treated mice; format: in vivo, mouse; conditions: spleens of injected MD4+/−/Eμ-TCL1+/+ mice
[3] = system: XBP-1s expression, 5TGM1 cells; assay: XBP-1s immunoblot in 5TGM1 multiple myeloma cells; format: cell-based, mouse
In short: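 5TGM1 mouse myeloma cells, with constitutively active IRE1/XBP-1, grown in RPMI 1640 with 10% FBS and β-ME at 37° C. Lysed in RIPA buffer, protein by BCA, then SDS-PAGE, nitrocellulose transfer, immunoblot with HRP secondaries and chemiluminescent detection.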

MEC2 cells = conditions: cited from earlier work
secretory IgM, B cells = conditions: cited from earlier work

## O=c1oc2c(C3OCCCO3)c(O)ccc2c2c1CNCC2 [Compound 4, 7-(1,3-dioxan-2-yl)-8-hydroxy-1,2,3,4-tetrahydro-5H-chromeno[3,4-c]pyridin-5-one]
CLL
  growth of CLL: retard the growth of CLL
[1]
  suppression of T cell proliferation by MDSCs from injected mice: lost their immunosuppressive function
[2]
  Arg-1 levels in granulocytic MDSCs versus DMSO-injected mice: expressed decreased levels of Arg-1
[3]; 10 μM for a course of 3 days
  suppression of XBP-1s expression, long term: continuously suppressed even after 3-day treatment
[3]; 24 h
  concentration that effectively blocks XBP-1s expression: 5 µM
[3]; 24 h, at 5 μM
  suppression of XBP-1s expression: more potent than 5
MEC2 cells
  sensitivity of MEC2 cells: less sensitive
Secretory IgM, B cells
  production of sIgM by treated B cells: inefficient in producing sIgM
